The source made the active and inactive calls. The rule behind the calls is not given here. Residues, ends and D or L forms follow the SMILES beside them. *: point of attachment. Palmitoyl = CCCCCCCCCCCCCCCC(=O)*
Columns and labels:
[1] = target: Sphingosine 1-phosphate receptor Edg-5/Sphingosine 1-phosphate receptor Edg-3 (Homo sapiens) (UniProt O95136+Q99500); assay: Agonist activity at S1P2/3 receptor in HEK293 cells assessed as inhibition of forskolin-induced cAMP level after 1 hr by alphascreen immunoassay; type: functional, cell-based
[2] = target: T1, D(4) dopamine receptor (Homo sapiens) (UniProt P21917); assay: Agonist activity at human D4 receptor expressed in Chem-5 cells assessed as calcium mobilization by FLIPR assay; type: functional, cell-based
T1 sequence (whole entry): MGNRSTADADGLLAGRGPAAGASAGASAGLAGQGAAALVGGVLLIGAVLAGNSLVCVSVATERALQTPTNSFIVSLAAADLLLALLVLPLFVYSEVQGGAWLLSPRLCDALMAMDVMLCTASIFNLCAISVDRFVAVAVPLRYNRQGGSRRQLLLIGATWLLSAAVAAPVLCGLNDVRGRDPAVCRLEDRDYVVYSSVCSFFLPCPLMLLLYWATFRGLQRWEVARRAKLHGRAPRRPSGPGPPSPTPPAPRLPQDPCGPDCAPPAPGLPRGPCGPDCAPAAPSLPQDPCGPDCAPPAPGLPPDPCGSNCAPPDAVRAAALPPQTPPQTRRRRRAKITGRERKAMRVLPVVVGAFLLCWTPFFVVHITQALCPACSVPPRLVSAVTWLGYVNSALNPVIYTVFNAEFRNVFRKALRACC

[3] = target: Beta-2 adrenergic receptor (Homo sapiens, UniProt P07550); assay: Agonist activity at beta-2 adrenergic receptor (unknown origin) expressed in CHOK1 cells by HTRF cAMP immunoassay; type: functional, cell-based, CHO-K1
Beta-2 adrenergic receptor, sequence (P07550 whole entry): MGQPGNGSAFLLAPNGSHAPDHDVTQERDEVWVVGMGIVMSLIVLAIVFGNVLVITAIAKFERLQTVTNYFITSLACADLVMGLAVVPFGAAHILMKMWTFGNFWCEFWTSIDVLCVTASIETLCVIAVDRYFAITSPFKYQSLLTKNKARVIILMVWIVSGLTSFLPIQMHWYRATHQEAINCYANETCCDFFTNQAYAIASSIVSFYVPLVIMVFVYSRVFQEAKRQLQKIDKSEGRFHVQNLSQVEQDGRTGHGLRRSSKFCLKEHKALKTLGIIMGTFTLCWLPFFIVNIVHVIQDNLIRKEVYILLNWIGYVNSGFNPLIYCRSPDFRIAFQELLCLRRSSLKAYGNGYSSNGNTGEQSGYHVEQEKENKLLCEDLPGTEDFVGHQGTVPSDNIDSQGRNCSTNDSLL

[4] = target: T2, 5-hydroxytryptamine receptor 1A (Homo sapiens, UniProt P08908); assay: Agonist activity at 5HT1A receptor (unknown origin) expressed in HeLa cells after 3 mins by calcium flux/FLIPR assay; type: functional, cell-based
T2 sequence (P08908 whole entry): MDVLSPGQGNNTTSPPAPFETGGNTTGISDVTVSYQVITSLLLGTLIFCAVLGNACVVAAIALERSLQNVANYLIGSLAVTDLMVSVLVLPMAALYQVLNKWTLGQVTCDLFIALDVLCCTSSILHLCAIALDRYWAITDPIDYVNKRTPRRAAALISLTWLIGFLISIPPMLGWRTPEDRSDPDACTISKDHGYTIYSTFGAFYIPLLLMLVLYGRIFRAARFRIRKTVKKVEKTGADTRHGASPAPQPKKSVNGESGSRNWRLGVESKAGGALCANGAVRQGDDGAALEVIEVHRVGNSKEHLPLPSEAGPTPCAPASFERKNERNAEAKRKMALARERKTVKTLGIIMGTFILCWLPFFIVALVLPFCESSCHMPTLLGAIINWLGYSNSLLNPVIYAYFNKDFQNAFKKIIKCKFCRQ

[5] = target: T3, 5-hydroxytryptamine receptor 2A (Homo sapiens, UniProt P28223); assay: Agonist activity at 5HT2A receptor (unknown origin) expressed in CHOK1 cells after 3 mins by calcium flux/FLIPR assay; type: functional, cell-based, CHO-K1
T3 sequence (P28223 whole entry): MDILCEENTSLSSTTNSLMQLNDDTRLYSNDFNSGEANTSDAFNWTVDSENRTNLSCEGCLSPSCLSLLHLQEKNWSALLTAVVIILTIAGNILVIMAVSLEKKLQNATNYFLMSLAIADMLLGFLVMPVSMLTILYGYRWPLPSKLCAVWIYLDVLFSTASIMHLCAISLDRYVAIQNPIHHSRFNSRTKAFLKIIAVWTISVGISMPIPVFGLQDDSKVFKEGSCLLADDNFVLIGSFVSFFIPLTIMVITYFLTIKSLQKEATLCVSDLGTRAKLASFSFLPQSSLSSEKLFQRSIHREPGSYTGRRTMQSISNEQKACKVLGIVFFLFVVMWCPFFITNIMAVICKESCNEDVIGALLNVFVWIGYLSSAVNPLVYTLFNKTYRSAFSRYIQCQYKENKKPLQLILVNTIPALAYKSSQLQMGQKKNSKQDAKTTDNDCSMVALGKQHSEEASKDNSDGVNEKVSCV

[6] = target: T4, 5-hydroxytryptamine receptor 2B (Homo sapiens, UniProt P41595); assay: Agonist activity at 5HT2B receptor (unknown origin) expressed in CHOK1 cells after 3 mins by calcium flux/FLIPR assay; type: functional, cell-based, CHO-K1
T4 sequence (P41595 whole entry): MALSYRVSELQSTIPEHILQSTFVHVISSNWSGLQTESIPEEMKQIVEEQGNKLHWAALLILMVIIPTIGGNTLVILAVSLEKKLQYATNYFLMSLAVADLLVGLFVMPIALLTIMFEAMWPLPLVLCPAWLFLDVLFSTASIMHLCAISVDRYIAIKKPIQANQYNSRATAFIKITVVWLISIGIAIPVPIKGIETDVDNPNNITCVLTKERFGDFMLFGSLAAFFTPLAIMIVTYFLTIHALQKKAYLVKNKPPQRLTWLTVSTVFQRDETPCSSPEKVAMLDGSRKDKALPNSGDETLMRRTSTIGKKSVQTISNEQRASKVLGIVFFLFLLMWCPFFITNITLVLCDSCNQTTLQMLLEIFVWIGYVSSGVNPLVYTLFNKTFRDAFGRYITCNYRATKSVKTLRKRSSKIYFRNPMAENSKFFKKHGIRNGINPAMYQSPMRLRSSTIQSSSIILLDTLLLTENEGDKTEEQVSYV

Cannabinoid receptor 1 [7] = target: T5, Cannabinoid receptor 1 (Homo sapiens, UniProt P21554); assay: Agonist activity at CB1 receptor (unknown origin) expressed in rat CHEM-1 cells after 3 mins by calcium flux/FLIPR assay; type: functional, cell-based
T5 sequence (P21554 whole entry): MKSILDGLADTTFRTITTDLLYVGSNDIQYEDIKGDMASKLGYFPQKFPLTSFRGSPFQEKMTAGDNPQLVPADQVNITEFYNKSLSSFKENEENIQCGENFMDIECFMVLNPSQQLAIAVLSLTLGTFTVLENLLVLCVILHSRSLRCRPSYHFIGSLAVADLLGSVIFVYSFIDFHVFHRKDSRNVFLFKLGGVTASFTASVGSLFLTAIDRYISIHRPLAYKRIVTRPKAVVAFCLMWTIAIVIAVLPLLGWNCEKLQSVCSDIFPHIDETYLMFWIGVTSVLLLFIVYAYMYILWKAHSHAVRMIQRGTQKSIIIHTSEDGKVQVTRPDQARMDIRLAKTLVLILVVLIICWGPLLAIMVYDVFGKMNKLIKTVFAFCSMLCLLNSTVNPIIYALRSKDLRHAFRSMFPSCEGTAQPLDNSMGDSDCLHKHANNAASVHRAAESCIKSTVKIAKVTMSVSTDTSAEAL

[8] = target: T6, Alpha-1A adrenergic receptor (Homo sapiens, UniProt P35348); assay: Agonist activity at alpha-1A adrenergic receptor (unknown origin) expressed in CHOK1 cells after 3 mins by calcium flux/FLIPR assay; type: functional, cell-based, CHO-K1
T6 sequence (P35348 whole entry): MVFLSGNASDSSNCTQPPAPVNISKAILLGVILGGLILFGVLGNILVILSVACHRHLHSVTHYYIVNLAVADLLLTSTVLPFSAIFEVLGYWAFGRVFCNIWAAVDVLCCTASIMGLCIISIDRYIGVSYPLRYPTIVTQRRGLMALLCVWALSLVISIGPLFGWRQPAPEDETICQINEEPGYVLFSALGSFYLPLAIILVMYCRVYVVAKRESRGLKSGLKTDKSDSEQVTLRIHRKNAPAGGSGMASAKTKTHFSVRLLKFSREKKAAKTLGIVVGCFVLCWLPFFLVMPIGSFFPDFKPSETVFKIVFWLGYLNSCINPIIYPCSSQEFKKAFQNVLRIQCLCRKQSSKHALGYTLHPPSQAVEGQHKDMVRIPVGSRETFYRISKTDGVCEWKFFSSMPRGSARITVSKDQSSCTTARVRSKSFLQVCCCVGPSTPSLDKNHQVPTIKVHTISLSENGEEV

D(1A) dopamine receptor [9] = target: T7, D(1A) dopamine receptor (Homo sapiens, UniProt P21728); assay: Agonist activity at D1A receptor (unknown origin) expressed in CHOK1 cells by HTRF cAMP immunoassay; type: functional, cell-based, CHO-K1
T7 sequence (P21728 whole entry): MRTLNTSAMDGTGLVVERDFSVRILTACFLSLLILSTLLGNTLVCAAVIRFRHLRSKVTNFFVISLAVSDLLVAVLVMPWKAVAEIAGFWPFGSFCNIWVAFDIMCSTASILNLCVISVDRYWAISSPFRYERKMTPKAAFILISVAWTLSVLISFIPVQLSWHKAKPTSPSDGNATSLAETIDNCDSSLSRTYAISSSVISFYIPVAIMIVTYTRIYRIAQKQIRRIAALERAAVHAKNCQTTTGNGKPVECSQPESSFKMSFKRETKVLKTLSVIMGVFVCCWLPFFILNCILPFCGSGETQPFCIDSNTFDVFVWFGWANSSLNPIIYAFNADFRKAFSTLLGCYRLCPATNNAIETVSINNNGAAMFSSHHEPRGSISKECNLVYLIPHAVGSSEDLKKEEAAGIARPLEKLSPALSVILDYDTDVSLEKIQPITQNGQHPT

[10] = target: T8, Muscarinic acetylcholine receptor M2 (Homo sapiens, UniProt P08172); assay: Agonist activity at muscarinic acetylcholine receptor M2 (unknown origin) expressed in CHOK1 cells after 3 mins by calcium flux/FLIPR assay; type: functional, cell-based, CHO-K1
T8 sequence (P08172 whole entry): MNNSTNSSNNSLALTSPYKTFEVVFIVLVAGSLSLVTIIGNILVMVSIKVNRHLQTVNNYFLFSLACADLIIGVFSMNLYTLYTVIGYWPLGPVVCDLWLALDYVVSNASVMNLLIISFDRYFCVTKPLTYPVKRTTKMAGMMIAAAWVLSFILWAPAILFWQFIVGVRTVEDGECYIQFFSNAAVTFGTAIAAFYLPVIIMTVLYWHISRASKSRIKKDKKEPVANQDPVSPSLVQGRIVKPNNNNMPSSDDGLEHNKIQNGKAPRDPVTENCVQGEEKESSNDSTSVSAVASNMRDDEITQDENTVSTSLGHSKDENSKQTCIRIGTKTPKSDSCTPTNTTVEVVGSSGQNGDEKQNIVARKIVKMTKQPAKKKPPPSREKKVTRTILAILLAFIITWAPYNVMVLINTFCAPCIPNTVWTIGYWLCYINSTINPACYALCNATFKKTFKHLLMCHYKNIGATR

Thromboxane A2 receptor [11] = target: T9, Thromboxane A2 receptor (Homo sapiens, UniProt P21731); assay: Agonist activity at thromboxane A2 receptor (unknown origin) expressed in HEK293-EBNA cells after 3 mins by calcium flux/FLIPR assay; type: functional, cell-based
T9 sequence (P21731 whole entry): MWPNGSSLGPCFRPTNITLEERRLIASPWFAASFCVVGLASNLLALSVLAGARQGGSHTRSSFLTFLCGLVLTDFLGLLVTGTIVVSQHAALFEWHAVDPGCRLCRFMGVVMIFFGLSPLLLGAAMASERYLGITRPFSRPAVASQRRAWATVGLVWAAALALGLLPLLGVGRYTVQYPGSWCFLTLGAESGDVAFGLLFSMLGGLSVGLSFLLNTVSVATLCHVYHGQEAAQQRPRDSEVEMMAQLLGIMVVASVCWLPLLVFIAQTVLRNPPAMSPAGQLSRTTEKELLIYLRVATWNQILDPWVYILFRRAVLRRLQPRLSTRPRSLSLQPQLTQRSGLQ

[12] = target: T2, 5-hydroxytryptamine receptor 1A; assay: Antagonist activity at 5HT1A receptor (unknown origin) expressed in HeLa cells after 15 mins by calcium flux/FLIPR assay in presence of R-(+)-8-OH-DPAT; type: functional, cell-based
[13] = target: T3, 5-hydroxytryptamine receptor 2A; assay: Antagonist activity at 5HT2A receptor (unknown origin) expressed in CHOK1 cells after 15 mins by calcium flux/FLIPR assay in presence of 5HT; type: functional, cell-based, CHO-K1
[14] = target: T4, 5-hydroxytryptamine receptor 2B; assay: Antagonist activity at 5HT2B receptor (unknown origin) expressed in CHOK1 cells after 15 mins by calcium flux/FLIPR assay in presence of BW723C86; type: functional, cell-based, CHO-K1
Cannabinoid receptor 1 [15] = target: T5, Cannabinoid receptor 1; assay: Antagonist activity at CB1 receptor (unknown origin) expressed in rat CHEM-1 cells after 15 mins by calcium flux/FLIPR assay in presence of CP55940; type: functional, cell-based
[16] = target: T6, Alpha-1A adrenergic receptor; assay: Antagonist activity at alpha-1A adrenergic receptor (unknown origin) expressed in CHOK1 cells after 15 mins by calcium flux/FLIPR assay in presence of A-61603; type: functional, cell-based, CHO-K1
D(1A) dopamine receptor [17] = target: T7, D(1A) dopamine receptor; assay: Antagonist activity at D1A receptor (unknown origin) expressed in CHOK1 cells after 5 mins by HTRF cAMP immunoassay in presence of cAMP/SKF38393; type: functional, cell-based, CHO-K1
[18] = target: T8, Muscarinic acetylcholine receptor M2; assay: Antagonist activity at muscarinic acetylcholine receptor M2 (unknown origin) expressed in CHOK1 cells after 15 mins by calcium flux/FLIPR assay in presence of acetylcholine; type: functional, cell-based, CHO-K1
Thromboxane A2 receptor [19] = target: T9, Thromboxane A2 receptor; assay: Antagonist activity at thromboxane A2 receptor (unknown origin) expressed in HEK293-EBNA cells after 15 mins by calcium flux/FLIPR assay in presence of U-46619; type: functional, cell-based

In the case of `CCCCCCCCCCCCCCCC(=O)N[C@H](C(=O)N[C@H](C(=O)N[C@@H](CC(C)C)C(=O)N1CCC[C@H]1C(=O)N[C@@H](CC(C)C)C(=O)N[C@@H](Cc1c[nH]c2ccccc12)C(=O)N[C@@H](C)C(=O)N[C@H](C(=O)N[C@@H](Cc1ccc(O)cc1)C(=O)N[C@H](C(=O)N[C@@H](Cc1ccc(O)cc1)C(=O)N[C@@H](CCCNC(=N)N)C(N)=O)[C@@H](C)O)[C@@H](C)O)[C@@H](C)O)C(C)C` (Palmitoyl-VTLPLWATYTYR-NH2), the Activity [1] is reported as “inactive”, the Activity [2] is reported as “inactive” and the EC50 [3] is reported as over 30 µM. For the same molecule, the EC50 [4] was over 30 µM, the EC50 [5] was over 30 µM and the EC50 [6] was over 30 µM. It also gave an EC50 (Cannabinoid receptor 1 [7]) of over 30 µM, an EC50 [8] of over 30 µM and an EC50 (D(1A) dopamine receptor [9]) of over 30 µM. The EC50 [10] was over 30 µM, the EC50 (Thromboxane A2 receptor [11]) was over 30 µM and the IC50 [12] was over 30 µM. The IC50 [13] was over 30 µM, the IC50 [14] was over 30 µM and the IC50 (Cannabinoid receptor 1 [15]) was over 30 µM. For the same molecule, the IC50 [16] was over 30 µM, the IC50 (D(1A) dopamine receptor [17]) was over 30 µM and the IC50 [18] was over 30 µM. It also gave an IC50 (Thromboxane A2 receptor [19]) of over 30 µM.

Reference: ChEMBL document CHEMBL3352267, “The design and implementation of a generic lipopeptide scanning platform to enable the identification of 'locally acting' agonists for the apelin receptor” (Bioorg Med Chem Lett, 2014)
